Measured values reported in publication PMC8080530, “Glucocorticoid receptor Thr524 phosphorylation by MINK1 induces interactions with 14-3-3 protein regulators” (The Journal of Biological Chemistry, 2021).
Where two headings read alike, the source gives them in different places. Non-standard residues stand in square brackets, D forms with d. Residues, ends and D or L forms follow the SMILES beside them. *: point of attachment. 6FAM = O=C1OC2(c3ccc(O)cc3Oc3cc(O)ccc32)c2cc(C(=O)*)ccc21; pT = C[C@@H](OP(=O)(O)O)[C@H](N)C(=O)O; pS = N[C@@H](COP(=O)(O)O)C(=O)O

Target: T1, 14-3-3ζ (Homo sapiens, UniProt P63104)
T1 construct: Full-length expression and purification of 14-3-3; made in house; host or cells: E. coli BL21 (DE3)STAR
T1 sequence (P63104 1-245): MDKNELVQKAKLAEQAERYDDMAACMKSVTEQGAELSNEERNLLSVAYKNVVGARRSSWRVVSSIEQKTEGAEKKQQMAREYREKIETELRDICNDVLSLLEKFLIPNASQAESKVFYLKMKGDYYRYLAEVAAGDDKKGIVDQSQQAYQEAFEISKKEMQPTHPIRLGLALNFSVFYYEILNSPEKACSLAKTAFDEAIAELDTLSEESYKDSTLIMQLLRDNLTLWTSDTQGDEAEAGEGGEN
Assay: FP assay with GR phosphorylated peptides and 14-3-3ζ
Type: binding
Method: After 30-min incubation at RT, the plates were read on a plate reader PHERAstar (BMG LABTECH GmbH) for FP signal using […] and standard excitation (485 nm) and emission (520 nm). Measurements were performed as triplicates. Binding data were fit to a standard Hill equation using the software Genedata Screener. The figures were made using the software GraphPad Prism 8. FP data were expressed as millipolarization (mP) units, and the dynamic range (ΔmP) was the difference of the signals from the bound peptide and free peptide. Errors are the standard error of the fit.

[1] = read-out: PKd with 14-3-3ζ (converted)
[2] = FITC-labeled peptide 60 nM (monophosphorylated) or 10 nM (doubly phosphorylated) titrated with 14-3-3ζ, 30 min RT, Hill fit, triplicates, read-out: Kd with 14-3-3ζ by FP

Structure (SMILES): CC[C@H](C)[C@H](NC(=O)[C@@H](NC(=O)[C@@H](N)CCCCN)[C@@H](C)O)C(=O)N[C@H](C(=O)N1CCC[C@H]1C(=O)N[C@@H](C)C(=O)N[C@H](C(=O)N[C@@H](CC(C)C)C(=O)N[C@@H](C)C(=O)N[C@@H](CCC(N)=O)C(=O)N[C@@H](CC(C)C)C(=O)N[C@H](C(=O)N1CCC[C@H]1C(=O)NCC(=O)NCC(=O)NCC(=O)NCC(=O)NCC(=O)N[C@@H](CCCNC(=N)N)C(=O)N[C@@H](CO)C(=O)N[C@@H](Cc1ccc(O)cc1)C(=O)N[C@@H](CCCNC(=N)N)C(=O)N[C@@H](CCC(N)=O)C(=O)N[C@@H](CO)C(=O)N[C@@H](COP(=O)(O)O)C(=O)N[C@@H](C)C(=O)N[C@@H](CC(N)=O)C(=O)N[C@@H](CC(C)C)C(=O)N[C@@H](CC(C)C)C(=O)N[C@@H](CS)C(=O)N[C@@H](Cc1ccccc1)C(=O)O)[C@@H](C)O)[C@@H](C)OP(=O)(O)O)C(C)C [GR_P526A] (H-KTIVPA[pT]LAQLTPGGGGGRSYRQS[pS]ANLLCF-OH)
- Kd [1]: 1260 nM

Structure (SMILES): CSCC[C@H](NC(=O)[C@H](CO)NC(=O)[C@H](CC(C)C)NC(=O)[C@H](COP(=O)(O)O)NC(=O)[C@@H](NC(=O)[C@H](C)NC(=O)[C@H](CCCCN)NC(=O)[C@H](CO)NC(=O)[C@H](CC(C)C)NC(=O)[C@H](CC(=O)O)NC(=O)c1ccc2c(c1)C1(OC2=O)c2ccc(O)cc2Oc2cc(O)ccc21)C(C)C)C(=O)NCC(=O)N[C@@H](CC(C)C)C(=O)N[C@@H](Cc1ccc(O)cc1)C(=O)NCC(=O)NCC(=O)NCC(=O)NCC(=O)NCC(=O)N[C@@H](CC(N)=O)C(=O)N[C@@H](CC(C)C)C(=O)N[C@@H](CC(N)=O)C(=O)N[C@@H](CCCNC(=N)N)C(=O)N[C@@H](CO)C(=O)N[C@H](C(=O)N[C@@H](COP(=O)(O)O)C(=O)N[C@H](C(=O)N1CCC[C@H]1C(=O)N[C@@H](CCC(=O)O)C(=O)N[C@@H](CC(N)=O)C(=O)N1CCC[C@H]1C(=O)N[C@@H](CCCCN)C(=O)O)C(C)C)[C@@H](C)O [GR_pS83-pS134] (6FAM-DLSKAV[pS]LSMGLYGGGGGNLNRST[pS]VPENPK-OH; C-terminus assumed)
- Kd [2]: 22000 ± 8000 nM
- fold decrease in binding affinity with 14-3-3ζ relative to GR_pT524-pS617 (ratio of Kd values): at least 15 fold

Structure (SMILES): CC(C)C[C@H](NC(=O)[C@H](CC(C)C)NC(=O)[C@H](Cc1ccccc1)NC(=O)[C@H](COP(=O)(O)O)NC(=O)[C@H](CC(=O)O)NC(=O)[C@H](CC(=O)O)NC(=O)[C@H](CCC(=O)O)NC(=O)CNC(=O)[C@H](C)NC(=O)[C@@H](N)CC(C)C)C(=O)N[C@@H](CCC(=O)O)C(=O)NCC(=O)N[C@@H](CC(N)=O)C(=O)O [GR_pS234] (H-LAGEDD[pS]FLLEGN-OH; N-terminus assumed)
- Kd [2]: > 150000 nM

Structure (SMILES): CC[C@H](C)[C@H](NC(=O)[C@@H](NC(=O)[C@@H](N)CCCCN)[C@@H](C)O)C(=O)N[C@H](C(=O)N1CCC[C@H]1C(=O)N[C@@H](C)C(=O)N[C@H](C(=O)N[C@@H](CC(C)C)C(=O)N1CCC[C@H]1C(=O)N[C@@H](C)C(=O)N[C@@H](CC(C)C)C(=O)N[C@H](C(=O)N1CCC[C@H]1C(=O)NCC(=O)NCC(=O)NCC(=O)NCC(=O)NCC(=O)N[C@@H](CCCNC(=N)N)C(=O)N[C@@H](CO)C(=O)N[C@@H](Cc1ccc(O)cc1)C(=O)N[C@@H](CCCNC(=N)N)C(=O)N[C@@H](CCC(N)=O)C(=O)N[C@@H](CO)C(=O)N[C@@H](COP(=O)(O)O)C(=O)N[C@@H](C)C(=O)N[C@@H](CC(N)=O)C(=O)N[C@@H](CC(C)C)C(=O)N[C@@H](CC(C)C)C(=O)N[C@@H](CS)C(=O)N[C@@H](Cc1ccccc1)C(=O)O)[C@@H](C)O)[C@@H](C)OP(=O)(O)O)C(C)C [GR_Q527A] (H-KTIVPA[pT]LPALTPGGGGGRSYRQS[pS]ANLLCF-OH)
- Kd [1]: 31.6 nM

Structure (SMILES): CC[C@H](C)[C@H](NC(=O)[C@@H](NC(=O)[C@@H](N)CCCCN)[C@@H](C)O)C(=O)N[C@H](C(=O)N1CCC[C@H]1C(=O)N[C@@H](C)C(=O)N[C@H](C(=O)N[C@@H](CC(C)C)C(=O)N1CCC[C@H]1C(=O)N[C@@H](CCC(N)=O)C(=O)N[C@@H](CC(C)C)C(=O)N[C@H](C(=O)N1CCC[C@H]1C(=O)NCC(=O)NCC(=O)NCC(=O)NCC(=O)NCC(=O)N[C@@H](CCCNC(=N)N)C(=O)N[C@@H](CO)C(=O)N[C@@H](Cc1ccc(O)cc1)C(=O)N[C@@H](CCCNC(=N)N)C(=O)N[C@@H](CCC(N)=O)C(=O)N[C@@H](CO)C(=O)N[C@@H](COP(=O)(O)O)C(=O)N[C@@H](C)C(=O)N[C@@H](CC(N)=O)C(=O)N[C@@H](C)C(=O)N[C@@H](CC(C)C)C(=O)N[C@@H](CS)C(=O)N[C@@H](Cc1ccccc1)C(=O)O)[C@@H](C)O)[C@@H](C)OP(=O)(O)O)C(C)C [GR_L620A] (H-KTIVPA[pT]LPQLTPGGGGGRSYRQS[pS]ANALCF-OH)
- Kd [1]: 50.1 nM

Structure (SMILES): CC[C@H](C)[C@H](NC(=O)[C@@H](NC(=O)[C@@H](N)CCCCN)[C@@H](C)O)C(=O)N[C@H](C(=O)N1CCC[C@H]1C(=O)N[C@@H](C)C(=O)N[C@H](C(=O)N[C@@H](CC(C)C)C(=O)N1CCC[C@H]1C(=O)N[C@@H](CCC(N)=O)C(=O)N[C@@H](CC(C)C)C(=O)N[C@H](C(=O)N1CCC[C@H]1C(=O)NCC(=O)NCC(=O)NCC(=O)NCC(=O)NCC(=O)N[C@@H](CCCNC(=N)N)C(=O)N[C@@H](CO)C(=O)N[C@@H](Cc1ccc(O)cc1)C(=O)N[C@@H](CCCNC(=N)N)C(=O)N[C@@H](C)C(=O)N[C@@H](CO)C(=O)N[C@@H](COP(=O)(O)O)C(=O)N[C@@H](C)C(=O)N[C@@H](CC(N)=O)C(=O)N[C@@H](CC(C)C)C(=O)N[C@@H](CC(C)C)C(=O)N[C@@H](CS)C(=O)N[C@@H](Cc1ccccc1)C(=O)O)[C@@H](C)O)[C@@H](C)OP(=O)(O)O)C(C)C [GR_Q615A] (H-KTIVPA[pT]LPQLTPGGGGGRSYRAS[pS]ANLLCF-OH)
- Kd [1]: 39.8 nM

Structure (SMILES): CC[C@H](C)[C@H](NC(=O)[C@@H](NC(=O)[C@@H](N)CCCCN)[C@@H](C)O)C(=O)N[C@H](C(=O)N1CCC[C@H]1C(=O)N[C@@H](C)C(=O)N[C@H](C(=O)N[C@@H](CC(C)C)C(=O)N1CCC[C@H]1C(=O)N[C@@H](CCC(N)=O)C(=O)N[C@@H](CC(C)C)C(=O)N[C@H](C(=O)N[C@@H](C)C(=O)NCC(=O)NCC(=O)NCC(=O)NCC(=O)NCC(=O)N[C@@H](CCCNC(=N)N)C(=O)N[C@@H](CO)C(=O)N[C@@H](Cc1ccc(O)cc1)C(=O)N[C@@H](CCCNC(=N)N)C(=O)N[C@@H](CCC(N)=O)C(=O)N[C@@H](CO)C(=O)N[C@@H](COP(=O)(O)O)C(=O)N[C@@H](C)C(=O)N[C@@H](CC(N)=O)C(=O)N[C@@H](CC(C)C)C(=O)N[C@@H](CC(C)C)C(=O)N[C@@H](CS)C(=O)N[C@@H](Cc1ccccc1)C(=O)O)[C@@H](C)O)[C@@H](C)OP(=O)(O)O)C(C)C [GR_P530A] (H-KTIVPA[pT]LPQLTAGGGGGRSYRQS[pS]ANLLCF-OH)
- Kd [1]: 31.6 nM

Structure (SMILES): CC[C@H](C)[C@H](NC(=O)[C@@H](NC(=O)[C@@H](N)CCCCN)[C@@H](C)O)C(=O)N[C@H](C(=O)N1CCC[C@H]1C(=O)N[C@@H](C)C(=O)N[C@H](C(=O)N[C@@H](CC(C)C)C(=O)N1CCC[C@H]1C(=O)N[C@@H](CCC(N)=O)C(=O)N[C@@H](CC(C)C)C(=O)N[C@H](C(=O)N1CCC[C@H]1C(=O)NCC(=O)NCC(=O)NCC(=O)NCC(=O)NCC(=O)N[C@@H](CCCNC(=N)N)C(=O)N[C@@H](CO)C(=O)N[C@@H](Cc1ccc(O)cc1)C(=O)N[C@@H](C)C(=O)N[C@@H](CCC(N)=O)C(=O)N[C@@H](CO)C(=O)N[C@@H](COP(=O)(O)O)C(=O)N[C@@H](C)C(=O)N[C@@H](CC(N)=O)C(=O)N[C@@H](CC(C)C)C(=O)N[C@@H](CC(C)C)C(=O)N[C@@H](CS)C(=O)N[C@@H](Cc1ccccc1)C(=O)O)[C@@H](C)O)[C@@H](C)OP(=O)(O)O)C(C)C [GR_R614A] (H-KTIVPA[pT]LPQLTPGGGGGRSYAQS[pS]ANLLCF-OH)
- Kd (FP, doubly phosphorylated 31-mer peptides, triplicates, read-out: Kd with 14-3-3ζ (values in nM)): 220 nM

Structure (SMILES): CC[C@H](C)[C@H](NC(=O)[C@@H](NC(=O)[C@@H](N)CCCCN)[C@@H](C)O)C(=O)N[C@H](C(=O)N1CCC[C@H]1C(=O)N[C@@H](C)C(=O)N[C@H](C(=O)N[C@@H](CC(C)C)C(=O)N1CCC[C@H]1C(=O)N[C@@H](CCC(N)=O)C(=O)N[C@@H](CC(C)C)C(=O)N[C@H](C(=O)N1CCC[C@H]1C(=O)NCC(=O)NCC(=O)NCC(=O)NCC(=O)NCC(=O)N[C@@H](CCCNC(=N)N)C(=O)N[C@@H](CO)C(=O)N[C@@H](C)C(=O)N[C@@H](CCCNC(=N)N)C(=O)N[C@@H](CCC(N)=O)C(=O)N[C@@H](CO)C(=O)N[C@@H](COP(=O)(O)O)C(=O)N[C@@H](C)C(=O)N[C@@H](CC(N)=O)C(=O)N[C@@H](CC(C)C)C(=O)N[C@@H](CC(C)C)C(=O)N[C@@H](CS)C(=O)N[C@@H](Cc1ccccc1)C(=O)O)[C@@H](C)O)[C@@H](C)OP(=O)(O)O)C(C)C [GR_Y613A] (H-KTIVPA[pT]LPQLTPGGGGGRSARQS[pS]ANLLCF-OH)
- Kd [1]: 79.4 nM

Structure (SMILES): CC[C@H](C)[C@H](NC(=O)[C@@H](NC(=O)[C@@H](N)CCCCN)[C@@H](C)O)C(=O)N[C@H](C(=O)N1CCC[C@H]1C(=O)N[C@@H](C)C(=O)N[C@H](C(=O)N[C@@H](CC(C)C)C(=O)N1CCC[C@H]1C(=O)N[C@@H](CCC(N)=O)C(=O)N[C@@H](CC(C)C)C(=O)N[C@@H](C)C(=O)N1CCC[C@H]1C(=O)NCC(=O)NCC(=O)NCC(=O)NCC(=O)NCC(=O)N[C@@H](CCCNC(=N)N)C(=O)N[C@@H](CO)C(=O)N[C@@H](Cc1ccc(O)cc1)C(=O)N[C@@H](CCCNC(=N)N)C(=O)N[C@@H](CCC(N)=O)C(=O)N[C@@H](CO)C(=O)N[C@@H](COP(=O)(O)O)C(=O)N[C@@H](C)C(=O)N[C@@H](CC(N)=O)C(=O)N[C@@H](CC(C)C)C(=O)N[C@@H](CC(C)C)C(=O)N[C@@H](CS)C(=O)N[C@@H](Cc1ccccc1)C(=O)O)[C@@H](C)OP(=O)(O)O)C(C)C [GR_T529A] (H-KTIVPA[pT]LPQLAPGGGGGRSYRQS[pS]ANLLCF-OH)
- Kd [1]: 50.1 nM
